Data published in PubChem BioAssay (NCI).
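The compound was tested at five concentrations on cells cultured in 96-well plates, with a 48-hour exposure period. TGI: total growth inhibition.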

What was measured:
Assay in all cases: DTP human tumour cell line panel, 48 h
M14 melanoma = test system: M14 melanoma
SN12C renal = test system: SN12C renal
OVCAR-5 ovarian = test system: OVCAR-5 ovarian
SF-539 CNS = test system: SF-539 CNS
HOP-62 NSCLC = test system: HOP-62 NSCLC
NCI/ADR-RES ovarian = test system: NCI/ADR-RES ovarian
SK-MEL-28 melanoma = test system: SK-MEL-28 melanoma
OVCAR-8 ovarian = test system: OVCAR-8 ovarian
U251 CNS = test system: U251 CNS
ACHN renal = test system: ACHN renal
NCI-H23 lung = test system: NCI-H23 lung
A498 renal = test system: A498 renal
EKVX NSCLC = test system: EKVX NSCLC
SNB-19 CNS = test system: SNB-19 CNS
KM12 colon = test system: KM12 colon
CCRF-CEM leukemia = test system: CCRF-CEM leukemia
NCI-H460 lung = test system: NCI-H460 lung
K-562 leukemia = test system: K-562 leukemia
SW-620 colon = test system: SW-620 colon
MDA-MB-231 breast = test system: MDA-MB-231 breast
UO-31 renal = test system: UO-31 renal
IGROV1 ovarian = test system: IGROV1 ovarian
SK-OV-3 ovarian = test system: SK-OV-3 ovarian
HT29 colon = test system: HT29 colon
RPMI-8226 leukemia = test system: RPMI-8226 leukemia
SK-MEL-5 melanoma = test system: SK-MEL-5 melanoma
CAKI-1 renal = test system: CAKI-1 renal
HCC-2998 colon = test system: HCC-2998 colon
MDA-N = test system: MDA-N
PC-3 prostate = test system: PC-3 prostate
SF-295 CNS = test system: SF-295 CNS
LOX IMVI melanoma = test system: LOX IMVI melanoma
MALME-3M melanoma = test system: MALME-3M melanoma
OVCAR-3 ovarian = test system: OVCAR-3 ovarian
COLO 205 colon = test system: COLO 205 colon
UACC-257 melanoma = test system: UACC-257 melanoma
MCF7 breast = test system: MCF7 breast
BT-549 breast = test system: BT-549 breast
SF-268 CNS = test system: SF-268 CNS
786-0 renal = test system: 786-0 renal
TK-10 renal = test system: TK-10 renal
UACC-62 melanoma = test system: UACC-62 melanoma
HL-60(TB) leukemia = test system: HL-60(TB) leukemia
HS 578T breast = test system: HS 578T breast
MOLT-4 leukemia = test system: MOLT-4 leukemia
OVCAR-4 ovarian = test system: OVCAR-4 ovarian
DU-145 prostate = test system: DU-145 prostate
HOP-92 NSCLC = test system: HOP-92 NSCLC
SK-MEL-2 melanoma = test system: SK-MEL-2 melanoma
MDA-MB-435 = test system: MDA-MB-435
NCI-H226 lung = test system: NCI-H226 lung
A549 NSCLC = test system: A549 NSCLC
SNB-75 CNS = test system: SNB-75 CNS
T-47D breast = test system: T-47D breast
NCI-H522 lung = test system: NCI-H522 lung
HCT-15 colon = test system: HCT-15 colon
HCT-116 colon = test system: HCT-116 colon
SR leukemia = test system: SR leukemia

`COc1ccc(P2(=S)Oc3ccc(C(c4ccccc4)(c4ccccc4)c4ccccc4)cc3O2)cc1` (configuration not stated) showed a TGI (M14 melanoma) of 27.3 µM, a TGI (SN12C renal) of 31.7 µM and a TGI (OVCAR-5 ovarian) of 33.6 µM. For the same compound, the TGI (SF-539 CNS) was 34.4 µM, the TGI (HOP-62 NSCLC) was 41.5 µM and the TGI (NCI/ADR-RES ovarian) was 39.5 µM. For the same compound, the TGI (SK-MEL-28 melanoma) was 34.3 µM, the TGI (OVCAR-8 ovarian) was 29.8 µM and the TGI (U251 CNS) was 31.9 µM. For the same compound, the TGI (ACHN renal) was 30.5 µM, the TGI (NCI-H23 lung) was 31.7 µM and the TGI (A498 renal) was 31.8 µM. The TGI (EKVX NSCLC) was 34.6 µM, the TGI (SNB-19 CNS) was 29.8 µM and the TGI (KM12 colon) was 28.5 µM. For the same compound, the TGI (CCRF-CEM leukemia) was 49 µM, the TGI (NCI-H460 lung) was 34.8 µM and the TGI (K-562 leukemia) was 33.8 µM. The TGI (SW-620 colon) was 34.6 µM, the TGI (MDA-MB-231 breast) was 38.9 µM and the TGI (UO-31 renal) was 30.8 µM. It also gave a TGI (IGROV1 ovarian) of 32.1 µM, a TGI (SK-OV-3 ovarian) of 37.5 µM and a TGI (HT29 colon) of 33.4 µM. The TGI (RPMI-8226 leukemia) was 48.1 µM, the TGI (SK-MEL-5 melanoma) was 36.2 µM and the TGI (CAKI-1 renal) was 33.9 µM. The TGI (HCC-2998 colon) was 30.6 µM, the TGI (MDA-N) was 32.7 µM and the TGI (PC-3 prostate) was 27.1 µM. The TGI (SF-295 CNS) was 33.5 µM, the TGI (LOX IMVI melanoma) was 28 µM and the TGI (MALME-3M melanoma) was 34.8 µM. It also gave a TGI (OVCAR-3 ovarian) of 31 µM, a TGI (COLO 205 colon) of 34.5 µM and a TGI (UACC-257 melanoma) of 34.2 µM. The TGI (MCF7 breast) was 34.9 µM, the TGI (BT-549 breast) was 41.3 µM and the TGI (SF-268 CNS) was 32.2 µM. The TGI (786-0 renal) was 32.2 µM, the TGI (TK-10 renal) was 33.4 µM and the TGI (UACC-62 melanoma) was 26.2 µM. The TGI (HL-60(TB) leukemia) was 32.1 µM, the TGI (HS 578T breast) was 41 µM and the TGI (MOLT-4 leukemia) was 41.7 µM. It also gave a TGI (OVCAR-4 ovarian) of 25.9 µM, a TGI (DU-145 prostate) of 35.1 µM and a TGI (HOP-92 NSCLC) of 32.4 µM. For the same compound, the TGI (SK-MEL-2 melanoma) was 35.3 µM, the TGI (MDA-MB-435) was 30.1 µM and the TGI (NCI-H226 lung) was 31.6 µM. The TGI (A549 NSCLC) was 30.7 µM, the TGI (SNB-75 CNS) was 26.8 µM and the TGI (T-47D breast) was 28 µM. It also gave a TGI (NCI-H522 lung) of 31.9 µM, a TGI (HCT-15 colon) of 34.8 µM and a TGI (HCT-116 colon) of 32 µM. The TGI (SR leukemia) was 47.5 µM.
With `OC1CC2CCCN(CCc3c1[nH]c1ccccc31)C2` (configuration not stated) the TGI (SN12C renal) was > 100 µM, the TGI (SF-539 CNS) was > 100 µM and the TGI (NCI/ADR-RES ovarian) was > 100 µM. The TGI (SK-MEL-28 melanoma) was > 100 µM, the TGI (OVCAR-8 ovarian) was > 100 µM and the TGI (U251 CNS) was > 100 µM. The TGI (ACHN renal) was > 100 µM, the TGI (NCI-H23 lung) was > 100 µM and the TGI (A498 renal) was > 100 µM. The TGI (SNB-19 CNS) was > 100 µM, the TGI (KM12 colon) was > 100 µM and the TGI (CCRF-CEM leukemia) was > 100 µM. The TGI (NCI-H460 lung) was > 100 µM, the TGI (K-562 leukemia) was > 100 µM and the TGI (SW-620 colon) was > 100 µM. For the same compound, the TGI (MDA-MB-231 breast) was > 100 µM, the TGI (UO-31 renal) was > 100 µM and the TGI (SK-OV-3 ovarian) was > 100 µM. The TGI (HT29 colon) was > 100 µM, the TGI (RPMI-8226 leukemia) was > 100 µM and the TGI (SK-MEL-5 melanoma) was > 100 µM. The TGI (CAKI-1 renal) was > 100 µM, the TGI (HCC-2998 colon) was > 100 µM and the TGI (MDA-N) was > 100 µM. For the same compound, the TGI (PC-3 prostate) was > 100 µM, the TGI (SF-295 CNS) was > 100 µM and the TGI (LOX IMVI melanoma) was > 100 µM. The TGI (MALME-3M melanoma) was > 100 µM, the TGI (COLO 205 colon) was > 100 µM and the TGI (UACC-257 melanoma) was > 100 µM. For the same compound, the TGI (MCF7 breast) was > 100 µM, the TGI (BT-549 breast) was > 100 µM and the TGI (SF-268 CNS) was > 100 µM. The TGI (786-0 renal) was > 100 µM, the TGI (TK-10 renal) was > 100 µM and the TGI (UACC-62 melanoma) was > 100 µM. For the same compound, the TGI (HL-60(TB) leukemia) was > 100 µM, the TGI (HS 578T breast) was > 100 µM and the TGI (OVCAR-4 ovarian) was > 100 µM. The TGI (DU-145 prostate) was > 100 µM, the TGI (HOP-92 NSCLC) was > 100 µM and the TGI (SK-MEL-2 melanoma) was > 100 µM. The TGI (MDA-MB-435) was > 100 µM, the TGI (NCI-H226 lung) was > 100 µM and the TGI (A549 NSCLC) was > 100 µM. The TGI (SNB-75 CNS) was > 100 µM, the TGI (T-47D breast) was > 100 µM and the TGI (NCI-H522 lung) was > 100 µM. For the same compound, the TGI (HCT-15 colon) was > 100 µM, the TGI (HCT-116 colon) was > 100 µM and the TGI (SR leukemia) was > 100 µM.
With `CN(C)CCCN1c2ccccc2CCc2cccc([N+](=O)[O-])c21` the TGI (M14 melanoma) was 29.2 µM, the TGI (SN12C renal) was 52.9 µM and the TGI (OVCAR-5 ovarian) was > 100 µM. It also gave a TGI (SF-539 CNS) of 31.6 µM, a TGI (HOP-62 NSCLC) of 30 µM and a TGI (NCI/ADR-RES ovarian) of 32.9 µM. The TGI (SK-MEL-28 melanoma) was 26.1 µM, the TGI (OVCAR-8 ovarian) was 29.3 µM and the TGI (U251 CNS) was 32.9 µM. The TGI (ACHN renal) was 53.6 µM, the TGI (NCI-H23 lung) was > 100 µM and the TGI (A498 renal) was 37.2 µM. For the same compound, the TGI (EKVX NSCLC) was > 100 µM, the TGI (SNB-19 CNS) was > 100 µM and the TGI (KM12 colon) was 30.9 µM. It also gave a TGI (CCRF-CEM leukemia) of 14.7 µM, a TGI (NCI-H460 lung) of 32.1 µM and a TGI (K-562 leukemia) of 29.1 µM. It also gave a TGI (SW-620 colon) of 36 µM, a TGI (MDA-MB-231 breast) of 47.6 µM and a TGI (UO-31 renal) of 41.7 µM. It also gave a TGI (IGROV1 ovarian) of 32.3 µM, a TGI (SK-OV-3 ovarian) of 85.9 µM and a TGI (HT29 colon) of 29.7 µM. It also gave a TGI (RPMI-8226 leukemia) of 23.8 µM, a TGI (SK-MEL-5 melanoma) of 30 µM and a TGI (CAKI-1 renal) of 48.4 µM. The TGI (HCC-2998 colon) was 31.5 µM, the TGI (MDA-N) was 29.7 µM and the TGI (PC-3 prostate) was 34.5 µM. For the same compound, the TGI (SF-295 CNS) was 30.1 µM, the TGI (LOX IMVI melanoma) was 30.2 µM and the TGI (MALME-3M melanoma) was 32.5 µM. It also gave a TGI (OVCAR-3 ovarian) of 29.8 µM, a TGI (COLO 205 colon) of 33.9 µM and a TGI (UACC-257 melanoma) of 34.7 µM. For the same compound, the TGI (MCF7 breast) was 30.7 µM, the TGI (BT-549 breast) was 61 µM and the TGI (SF-268 CNS) was 64.5 µM. For the same compound, the TGI (786-0 renal) was 28.6 µM, the TGI (TK-10 renal) was 37.2 µM and the TGI (UACC-62 melanoma) was 36.2 µM. It also gave a TGI (HL-60(TB) leukemia) of 30.1 µM, a TGI (HS 578T breast) of 70.5 µM and a TGI (MOLT-4 leukemia) of 29.8 µM. For the same compound, the TGI (OVCAR-4 ovarian) was 45.2 µM, the TGI (DU-145 prostate) was 32.3 µM and the TGI (HOP-92 NSCLC) was 45.5 µM. It also gave a TGI (SK-MEL-2 melanoma) of 65.6 µM, a TGI (MDA-MB-435) of 30.3 µM and a TGI (NCI-H226 lung) of 69.5 µM. For the same compound, the TGI (A549 NSCLC) was > 100 µM, the TGI (SNB-75 CNS) was 24.4 µM and the TGI (T-47D breast) was 27.8 µM. The TGI (NCI-H522 lung) was 30.6 µM, the TGI (HCT-15 colon) was 29.6 µM and the TGI (HCT-116 colon) was 28.9 µM. The TGI (SR leukemia) was 28.5 µM.
